Measurements as given in patent US8546590B2, “Polar dyes” (Cepheid, priority 2005, dated 2013).

Legend:
[1] = Degradation/deprotection of arsonate ester-protected dye in 25% aqueous ammonia (Method G, HPLC); format: physicochemical
Experimental: (§1) Measuring of Degradation/Deprotection Rate of Arsonate Esters-protected Dye.
(§2) A protected dye (1 mg) and Methyl Red dye (0.5 mg, internal standard, λmax 482 nm) were dissolved in MeOH (5 mL) and mixed with a buffer or 25% aqueous ammonia (45 mL). Samples (1 mL) were taken over a period of degradation. The samples were quickly placed under vacuum to remove ammonia and redissolved in MeOH or used directly for HPLC analysis in buffers in a range of pH 1.6 (0.1% trifluoroacetic acid)-7.5 (0.1 M triethylammonium acetate). HPLC analysis was performed on Phenomenex Gemini 5 um C18 110A column (250×4.6 mm) using 0-100% gradient of MeCN in 0.1M triethylammonium acetate (pH 7.5) buffer. The chromatogram was detected in a range 200-600 nm using Varian ProStar PDA detector. Calculations of the relative concentrations were performed based on peaks area at 520 nm. An internal standard gives a peak at 8.6 min (λmax 482 nm).
FIG. 12 illustrates an example of a typical kinetic curve corresponding to the base-induced deprotection of a bis-pinacol protected azodye.

[2] = Degradation/deprotection of arsonate ester-protected dye in aqueous buffers (Method G, HPLC); format: physicochemical; details: for stability in aqueous buffers: range of pH 1.6-7.5 in aqueous buffers
Experimental: as §1, §2

[3] = 25% aqueous ammonia, room temperature

SMILES | stability / degradation in 25% aqueous ammonia ([1]; 25% aqueous ammonia) | degradation of the compound observed ([1]; over 3 days period, 25% aqueous ammonia at room temperature (and pH 1.6-7.5 buffers)) | stability in aqueous buffers [2] | degradation in acidic conditions ([2]; acidic conditions, aqueous buffers) | time after which practically full deprotection was observed ([2]; buffer, room temperature, pH 7.5) | degradation at pH 7.5 ([2]; pH 7.5 aqueous buffer) | Rate of full degradation (τ1/2) ([2]; room temperature and pH 7.5 buffer) | Rate of full degradation (τ1/2) [1, 3] | time after which practically full deprotection was observed [1, 3] | Rate of degradation (τ1/2) [1, 3]
CN(C)c1ccc(N=Nc2ccc([As]34(Oc5ccccc5O3)Oc3ccccc3O4)cc2)cc1 [Example 14, [4-(4′-Dimethylaminophenylazo)phenyl]arsonic acid bis-catechol chelate] | very stable | No degradation | very stable |  |  |  |  |  |  | 
CN(C)c1ccc(N=Nc2ccc([As]3(=O)OC(=O)C(C)(C)O3)cc2)cc1 (stereo not drawn) [Example 13, [4-(4′-Dimethylaminophenylazo)phenyl]arsonic acid, chelate with 2-hydroxy-isobutyric acid] |  |  | very unstable | degrades instantly | 2 h | within minutes | approximately 10 min |  |  | 
CN(C)c1ccc(N=Nc2ccc([As]3(=O)OC(C)(C)CC(C)(C)O3)cc2)cc1 [Example 12, [4-(4′-Dimethylaminophenylazo)phenyl]arsonic acid 2,4-dimethyl-2,4-pentanediol chelate] | degrades quickly |  | relatively stable |  |  |  |  | approximately 15 min | 4 h | 
CN(C)c1ccc(N=Nc2ccc([As]34(OC(C)(C)C(C)(C)O3)OC(C)(C)C(C)(C)O4)cc2)cc1 [Example 11, [4-(4′-Dimethylaminophenylazo)phenyl]arsonic acid bis-pinacolate] | degrades |  | stable |  |  |  |  |  |  | approximately 3 hr
